System: adult male CD1 mice, ischemia-reperfusion
Conditions: mouse, in vivo

“AAT: plasma-derived alpha-1 antitrypsin (Aralast NP, Baxter)” was tested, and the “Infarct size when given with the LRP1 blocking antibody” value was “significant increase in infarct size”.

— article PMC6058925 (JACC: Basic to Translational Science, 2017)
